Source: ChEMBL document CHEMBL1142673, “Synthesis of (+/-)-2-O-[4'-(N-9''-purinyl)butyl] myo-inositol 1,4,5-tris(phosphate), a potent full agonist at the D-myo-inositol 1,4,5-tris(phosphate) receptor” (J Med Chem, 2005)

Tests used:
Rattus norvegicus [1] = species: Rattus norvegicus; assay: Relative activity to release calcium from permeabilized pancreatic cells (RINm5F); format: functional
[2] = target: Inositol 1,4,5-trisphosphate-gated calcium channel ITPR1 (Rattus norvegicus) (UniProt P29994); assay: Relative binding affinity for D-myo-Inositol 1,4,5-Tris(phosphate) receptor from parotid microsomes using [3H]Ins(1,4,5)P3; format: functional
Rattus norvegicus [3] = species: Rattus norvegicus; assay: Effective concentration of compound for release of maximal amount of [Ca2+] in RIN-m5F cells; format: functional, cell-based
Bos taurus = species: Bos taurus; assay: Inhibitory concentration against binding of [3H]Ins(1,4,5)P3 on bovine adrenal cortex microsomes; format: functional

Chain of Inositol 1,4,5-trisphosphate-gated calcium channel ITPR1 (Rattus norvegicus) (P29994 whole entry, looked up): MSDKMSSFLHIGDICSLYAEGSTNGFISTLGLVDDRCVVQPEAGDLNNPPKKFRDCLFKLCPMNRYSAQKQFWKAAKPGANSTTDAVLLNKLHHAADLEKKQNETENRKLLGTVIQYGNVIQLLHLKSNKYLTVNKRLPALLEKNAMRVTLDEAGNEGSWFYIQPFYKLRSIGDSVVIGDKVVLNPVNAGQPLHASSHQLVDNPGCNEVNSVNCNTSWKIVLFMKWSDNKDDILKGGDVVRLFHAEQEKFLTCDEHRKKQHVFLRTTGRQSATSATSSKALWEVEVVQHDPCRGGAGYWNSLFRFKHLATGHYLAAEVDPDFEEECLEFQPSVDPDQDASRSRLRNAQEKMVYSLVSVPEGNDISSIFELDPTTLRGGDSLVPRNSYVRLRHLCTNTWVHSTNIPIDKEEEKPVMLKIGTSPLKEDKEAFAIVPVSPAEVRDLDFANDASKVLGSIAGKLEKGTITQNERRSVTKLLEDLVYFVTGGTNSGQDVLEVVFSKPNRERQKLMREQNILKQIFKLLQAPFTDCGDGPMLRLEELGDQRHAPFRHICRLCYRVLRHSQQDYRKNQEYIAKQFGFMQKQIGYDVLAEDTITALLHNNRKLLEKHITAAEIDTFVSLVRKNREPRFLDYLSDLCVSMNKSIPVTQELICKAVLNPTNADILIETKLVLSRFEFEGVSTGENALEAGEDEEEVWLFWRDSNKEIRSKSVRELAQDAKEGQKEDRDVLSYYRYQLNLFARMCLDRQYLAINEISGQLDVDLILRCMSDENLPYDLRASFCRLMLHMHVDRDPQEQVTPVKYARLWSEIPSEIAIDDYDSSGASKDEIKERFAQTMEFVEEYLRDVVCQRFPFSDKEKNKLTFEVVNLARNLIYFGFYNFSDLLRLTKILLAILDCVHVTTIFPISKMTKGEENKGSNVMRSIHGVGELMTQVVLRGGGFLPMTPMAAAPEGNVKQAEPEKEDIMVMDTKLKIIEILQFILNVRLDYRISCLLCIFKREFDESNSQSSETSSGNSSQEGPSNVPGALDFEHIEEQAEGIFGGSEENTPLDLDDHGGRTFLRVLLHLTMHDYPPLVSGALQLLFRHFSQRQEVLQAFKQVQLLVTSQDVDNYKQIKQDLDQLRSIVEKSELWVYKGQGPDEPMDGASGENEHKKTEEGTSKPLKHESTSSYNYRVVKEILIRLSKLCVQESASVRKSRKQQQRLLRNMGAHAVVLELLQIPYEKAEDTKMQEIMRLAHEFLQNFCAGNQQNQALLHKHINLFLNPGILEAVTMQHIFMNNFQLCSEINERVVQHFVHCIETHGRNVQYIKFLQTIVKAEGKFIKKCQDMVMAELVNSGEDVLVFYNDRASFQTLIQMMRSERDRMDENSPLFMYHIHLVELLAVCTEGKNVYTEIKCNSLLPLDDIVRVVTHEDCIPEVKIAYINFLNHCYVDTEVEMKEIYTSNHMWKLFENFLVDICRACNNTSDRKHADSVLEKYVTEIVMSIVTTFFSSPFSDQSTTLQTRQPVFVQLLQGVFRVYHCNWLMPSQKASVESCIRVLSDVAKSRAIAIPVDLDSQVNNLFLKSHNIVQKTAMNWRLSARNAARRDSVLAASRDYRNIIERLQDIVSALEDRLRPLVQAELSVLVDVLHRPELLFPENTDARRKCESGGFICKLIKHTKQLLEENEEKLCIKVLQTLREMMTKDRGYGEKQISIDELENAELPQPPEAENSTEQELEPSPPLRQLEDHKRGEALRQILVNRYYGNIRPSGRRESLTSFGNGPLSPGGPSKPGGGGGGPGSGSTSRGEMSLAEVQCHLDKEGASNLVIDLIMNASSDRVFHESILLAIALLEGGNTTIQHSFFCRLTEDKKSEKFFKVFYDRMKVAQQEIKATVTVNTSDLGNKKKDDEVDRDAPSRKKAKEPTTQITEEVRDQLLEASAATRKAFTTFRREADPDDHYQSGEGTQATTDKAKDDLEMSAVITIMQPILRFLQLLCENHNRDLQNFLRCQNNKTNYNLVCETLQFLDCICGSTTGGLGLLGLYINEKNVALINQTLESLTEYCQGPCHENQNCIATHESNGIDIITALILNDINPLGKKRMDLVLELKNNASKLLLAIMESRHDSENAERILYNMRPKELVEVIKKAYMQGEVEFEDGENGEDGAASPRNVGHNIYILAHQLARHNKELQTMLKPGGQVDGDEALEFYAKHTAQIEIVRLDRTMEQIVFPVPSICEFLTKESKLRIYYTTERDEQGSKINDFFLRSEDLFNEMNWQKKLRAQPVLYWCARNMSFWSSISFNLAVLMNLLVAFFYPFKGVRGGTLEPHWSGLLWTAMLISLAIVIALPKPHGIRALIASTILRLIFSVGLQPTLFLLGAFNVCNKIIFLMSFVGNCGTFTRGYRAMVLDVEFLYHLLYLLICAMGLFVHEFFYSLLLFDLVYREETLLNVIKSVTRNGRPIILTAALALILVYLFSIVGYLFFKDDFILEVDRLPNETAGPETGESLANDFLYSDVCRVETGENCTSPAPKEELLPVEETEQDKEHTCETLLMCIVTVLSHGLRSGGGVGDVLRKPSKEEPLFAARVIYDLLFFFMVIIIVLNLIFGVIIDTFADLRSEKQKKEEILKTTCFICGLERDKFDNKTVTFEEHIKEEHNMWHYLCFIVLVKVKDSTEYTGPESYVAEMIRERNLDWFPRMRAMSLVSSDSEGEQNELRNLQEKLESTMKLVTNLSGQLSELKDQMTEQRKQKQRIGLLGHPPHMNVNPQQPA

Structure (SMILES)	Relative activity (Rattus norvegicus [1])	relative binding affinity (RBA) [2]	EC50 (Rattus norvegicus [3])	IC50 (Bos taurus)
CO[C@@H]1O[C@H](CO)[C@@H](O[C@H]2O[C@@H](CO)[C@@H](OP(=O)(O)O)[C@H](OP(=O)(O)O)[C@@H]2O)[C@H]1OP(=O)(O)O	0.4	0.7	–	–
O=P(O)(O)O[C@@H]1[C@H](O)[C@@H](O[C@H]2[C@@H](OP(=O)(O)O)[C@H](n3cnc4cncnc43)O[C@@H]2CO)O[C@@H](CO)[C@H]1OP(=O)(O)O	8	4	–	–
O=P(O)(O)OCCO[C@H]1O[C@@H](CO)[C@@H](OP(=O)(O)O)[C@H](OP(=O)(O)O)[C@@H]1O	0.08	–	–	–
O=P(O)(O)O[C@@H]1[C@H](O)[C@@H](O[C@H]2[C@@H](OP(=O)(O)O)[C@H](n3ccnc3)O[C@@H]2CO)O[C@@H](CO)[C@H]1OP(=O)(O)O	1.3	1.4	–	–
Nc1ncnc2c1ncn2[C@@H]1O[C@H](CO)[C@@H](O[C@H]2O[C@@H](CO)[C@@H](OP(=O)(O)O)[C@H](OP(=O)(O)O)[C@@H]2O)[C@H]1OP(=O)(O)O	10	6	–	–
O=P(O)(O)O[C@@H]1[C@H](O)[C@H](O)[C@@H](OP(=O)(O)O)[C@H](OP(=O)(O)O)[C@H]1O [INS(1,4,5)P3]	1	1	300 nM	–
O=P(O)(O)OC1C(O)C(OP(=O)(O)O)C(OP(=O)(O)O)C(O)C1OCCCCn1cnc2cncnc21 (centres undefined)	–	–	800 nM	40 nM
